How the values were obtained:
[1] = test system: human neural progenitor cell line (RenVM); assay: neuronal differentiation of Ren cells (β3-tubulin positive fraction); assay type: cell-based; conditions: 1 μM d-bdnf, four days; BDNF 50 ng/mL comparator
Method: (§1) Figure 3 Neurite outgrowth stimulated by BDNF and its mimetic peptide ligands. (A) Top, left: schematic timeline of the experiment. SH-SY5Y cells were differentiated for 5 days (d1–5) by addition of retinoic acid (RA, gray bar) in the cell medium. Then, cells were stimulated for 3 days (d6–8) with 150 ng/mL BDNF or different concentrations of its peptide-mimetics (black bar) or left untreated (white bar). On the right and bottom, representative images of the differentiated cells at the end of each treatment. Scale bar 50 μm. (B) Scatter dot plot of the total neurite length, normalized to the number of cell bodies present in each analyzed field. […] For each field, an average of 50–200 cells were counted. […] (C) Representative fluorescence images of DIV3 Ren cells stained with DAPI (blue) and β3-tubulin (green) after differentiation with the standard medium (CTRL), or with the standard medium supplemented with 50 ng/mL BDNF or with 1 μM d-bdnf. […] (D) Column plot of the mean ± SD fraction of β3-tubulin (green) positive on the total cells, counted in the DAPI channel of the analyzed fields (nfields) (CTRL: nfields = 10 and total ncells = 4756; BDNF: nfields = 11 and total ncells = 4330; d-bdnf: nfields = 10 and total ncells = 5619 cells; ****p < 0.0001, *p < 0.05 according to the one-way ANOVA with Dunnett’s multiple comparison test). […]

SH-SY5Y cells = assay: neurite outgrowth of differentiated SH-SY5Y cells; assay type: cell-based, human; conditions: 3 days after 5 days retinoic acid
Method: as §1

## HSDPARRGELSVC-C-VSLEGRRAPDSH (disulfide) [d-bdnf]
[1]
  neuronal cell fraction (β3-tubulin positive): significant increase of detected neurons with respect to untreated cells, in a similar way to BDNF
SH-SY5Y cells; 1 and 5 μM, compared with BDNF 150 ng/mL
  neurite network: able to elicit a neurite network similar to that raised by nM concentrations of BDNF
SH-SY5Y cells; higher doses (10 μM)
  neurite network: not able to produce the same effect

— paper PMC9732821, “Neurotrophic Activity and Its Modulation by Zinc Ion of a Dimeric Peptide Mimicking the Brain-Derived Neurotrophic Factor N-Terminal Region” (ACS Chemical Neuroscience, 2022)
